Laboratory results: ChEMBL document CHEMBL4420073, “Small molecule inhibitors of MUC1 and methods of identifying the same” (2015)
Each block holds one compound with its values, some of them ahead of it. Active and inactive are the calls of the source. The rule behind the calls is not given here.

Key:
Mucin-1 (Homo sapiens) [1] = molecular target: Mucin-1 (Homo sapiens) (UniProt P15941); experiment: Inhibition of biotinylated MUC1-CD dimerization (unknown origin) assessed as decrease in oligomer formation at 100 uM by streptavidin-HRP based assay relative to control
Chain of Mucin-1 (Homo sapiens) (P15941 24-1097 limits assumed): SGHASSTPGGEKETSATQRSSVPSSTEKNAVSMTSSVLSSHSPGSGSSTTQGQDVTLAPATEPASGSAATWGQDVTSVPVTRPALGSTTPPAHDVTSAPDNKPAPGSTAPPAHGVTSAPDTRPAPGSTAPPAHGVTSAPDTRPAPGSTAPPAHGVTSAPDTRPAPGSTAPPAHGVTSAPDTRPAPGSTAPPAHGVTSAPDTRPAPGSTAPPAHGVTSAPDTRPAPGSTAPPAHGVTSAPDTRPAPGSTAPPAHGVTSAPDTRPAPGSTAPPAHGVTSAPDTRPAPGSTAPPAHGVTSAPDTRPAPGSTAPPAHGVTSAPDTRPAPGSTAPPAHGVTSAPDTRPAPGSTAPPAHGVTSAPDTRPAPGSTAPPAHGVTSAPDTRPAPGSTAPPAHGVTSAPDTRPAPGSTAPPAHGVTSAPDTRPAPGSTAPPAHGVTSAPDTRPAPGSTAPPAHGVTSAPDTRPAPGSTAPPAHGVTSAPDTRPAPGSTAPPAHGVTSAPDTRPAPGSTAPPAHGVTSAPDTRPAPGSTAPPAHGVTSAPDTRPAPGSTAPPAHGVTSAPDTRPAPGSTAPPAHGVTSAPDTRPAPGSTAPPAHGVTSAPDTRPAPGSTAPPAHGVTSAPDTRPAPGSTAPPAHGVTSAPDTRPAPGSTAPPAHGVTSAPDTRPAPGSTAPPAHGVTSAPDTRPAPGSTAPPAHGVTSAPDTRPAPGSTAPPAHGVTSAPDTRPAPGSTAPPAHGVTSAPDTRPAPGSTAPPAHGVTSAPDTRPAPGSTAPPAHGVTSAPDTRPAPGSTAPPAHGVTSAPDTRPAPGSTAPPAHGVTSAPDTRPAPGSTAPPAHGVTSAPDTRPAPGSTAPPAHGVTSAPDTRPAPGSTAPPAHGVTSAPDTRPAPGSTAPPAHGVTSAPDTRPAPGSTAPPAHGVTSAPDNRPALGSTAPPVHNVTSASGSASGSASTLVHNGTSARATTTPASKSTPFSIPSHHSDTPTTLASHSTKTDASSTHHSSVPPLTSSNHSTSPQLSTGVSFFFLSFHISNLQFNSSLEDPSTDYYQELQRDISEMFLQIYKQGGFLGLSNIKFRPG
Chain of Mucin-1 (Homo sapiens) (P15941 1098-1255 limits assumed): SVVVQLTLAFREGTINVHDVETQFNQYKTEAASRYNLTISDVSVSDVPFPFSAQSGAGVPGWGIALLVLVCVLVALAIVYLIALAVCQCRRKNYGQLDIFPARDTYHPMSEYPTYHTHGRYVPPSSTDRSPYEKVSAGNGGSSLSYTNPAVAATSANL

ZR-75-1 = experiment: Growth inhibition of human ZR-75-1 cells assessed as reduction in cell number incubated up to 2 days by MTS assay; assay type: functional, cell-based
MCF7 [2] = experiment: Induction of cell membrane integrity loss in human MCF7 cells assessed as PI uptake level at 75 uM incubated for 3 days by propidium iodide staining based flow cytometry (reference value: 22%); assay type: functional
Mucin-1 (Homo sapiens) [3] = molecular target: Mucin-1 (Homo sapiens) (UniProt P15941); experiment: Inhibition of MUC1-CD dimerization in human MCF10A cells assessed as reduction in MUC1-C levels at 50 to 100 uM incubated for 3 days by immunoblot analysis; assay type: cell-based
MCF-10A [4] = experiment: Induction of cell membrane integrity loss in immortalized human MCF10A cells assessed as PI uptake level at 75 uM incubated for 3 days by propidium iodide staining based flow cytometry (reference value: 23%); assay type: functional
Mucin-1 (Homo sapiens) [5] = molecular target: Mucin-1 (Homo sapiens) (UniProt P15941); experiment: Inhibition of MUC1-CD dimerization (unknown origin) expressed in HEK293 cells assessed as disruption of interaction between Flag-MUC1-CD and GFP-MUC1-CD by coimmunoprecipitation assay; assay type: cell-based
MCF-10A [6] = experiment: Induction of cell membrane integrity loss in immortalized human MCF10A cells assessed as PI uptake level at 50 uM incubated for 3 days by propidium iodide staining based flow cytometry (reference value: 23%); assay type: functional
MCF-10A [7] = experiment: Induction of cell membrane integrity loss in immortalized human MCF10A cells at 75 uM incubated for 3 days by propidium iodide staining based flow cytometry; assay type: functional
Mucin-1 (Homo sapiens) [8] = molecular target: Mucin-1 (Homo sapiens) (UniProt P15941); experiment: Inhibition of soluble unbound MUC1-CD dimerization (unknown origin) by immunoblot analysis
Mucin-1 (Homo sapiens) [9] = molecular target: Mucin-1 (Homo sapiens) (UniProt P15941); experiment: Inhibition of MUC1 nuclear import in human MCF7 cells assessed as decrease in nuclear MUC1-C levels at 75 uM incubated for 3 days by immunoblot analysis; assay type: cell-based
MCF-10A [10] = experiment: Growth inhibition of immortalized human MCF10A cells assessed as reduction in cell number up to 100 uM incubated for 3 days by MTS assay; assay type: functional, cell-based
MCF-10A [11] = experiment: Induction of apoptosis in immortalized human MCF10A cells assessed as caspase-9 cleavage at 75 uM incubated for 3 days by immunoblot analysis; assay type: functional, cell-based
MCF7 [12] = experiment: Reduction of MUC1 mRNA levels in human MCF7 cells at 75 uM incubated for 3 days by qRT-PCR analysis; assay type: functional, cell-based
Mucin-1 (Homo sapiens) [13] = molecular target: Mucin-1 (Homo sapiens) (UniProt P15941); experiment: Inhibition of MUC1 in human MCF7 cells assessed as decrease in MUC1 protein level in whole cell lysates at 75 uM incubated for 3 days by immunoblot analysis; assay type: subcellular; details: Lysate

inhibition (Mucin-1 (Homo sapiens) [1]): > 50%
SMILES: CCCc1c(C)c2ccc(OC(=O)C(C)NC(=O)OCc3ccccc3)cc2oc1=O (stereo not drawn)

inhibition (Mucin-1 (Homo sapiens) [1]): > 50%
SMILES: CCOC(=O)c1oc2cc(OCc3ccc(C(=O)OC)o3)ccc2c(=O)c1-c1ccc(C(=O)OC)o1

inhibition (Mucin-1 (Homo sapiens) [1]): > 50%
SMILES: COc1ccc2c(=O)c(-c3cscn3)c(C(F)(F)F)oc2c1

inhibition (Mucin-1 (Homo sapiens) [1]): > 50%
SMILES: O=c1cc(C(F)(F)F)c2ccc(OCc3ccccc3)cc2o1

SMILES: O=c1c(O)c(-c2ccc(O)cc2)oc2cc(O)cc(O)c12
growth inhibition (GI) (ZR-75-1): Active

inhibition (Mucin-1 (Homo sapiens) [3]): inactive
inhibition (Mucin-1 (Homo sapiens) [5]): inactive
inhibition (Mucin-1 (Homo sapiens) [1]): inactive
inhibition (Mucin-1 (Homo sapiens) [8]): inactive
inhibition (Mucin-1 (Homo sapiens) [9]): inactive
inhibition (Mucin-1 (Homo sapiens) [13]): inactive
SMILES: O=c1cc(-c2ccccc2)oc2cc(O)c(O)c(O)c12 [BAICALEIN]
Activity (MCF7 [2]): 19%
Activity (MCF-10A [4]): 28%
Activity (MCF-10A [6]): 27%
Activity (MCF-10A [7]): inactive
growth inhibition (GI) (MCF-10A [10]): inactive
Activity (MCF-10A [11]): inactive
Activity (MCF7 [12]): inactive
